Reference: ChEMBL document CHEMBL5120922, “Discovery, Optimization, and Evaluation of Potent and Selective PI3Kδ-γ Dual Inhibitors for the Treatment of B-cell Malignancies” (J Med Chem, 2022)

Assays:
DOHH-2 = assay: Antiproliferative activity against human DOHH-2 cells assessed as cell growth inhibition measured after 72 hrs by MTT assay; type: functional, cell-based; settings: DOHH-2, 72 h
[1] = biological target: T1, Phosphatidylinositol 4,5-bisphosphate 3-kinase catalytic subunit delta isoform (Homo sapiens, UniProt O00329); assay: Inhibition of N-terminal His6-tagged recombinant full length human PI3Kdelta expressed in baculovirus infected Sf21 insect cells incubated for 30 mins by HTRF assay
T1 sequence (O00329 whole entry): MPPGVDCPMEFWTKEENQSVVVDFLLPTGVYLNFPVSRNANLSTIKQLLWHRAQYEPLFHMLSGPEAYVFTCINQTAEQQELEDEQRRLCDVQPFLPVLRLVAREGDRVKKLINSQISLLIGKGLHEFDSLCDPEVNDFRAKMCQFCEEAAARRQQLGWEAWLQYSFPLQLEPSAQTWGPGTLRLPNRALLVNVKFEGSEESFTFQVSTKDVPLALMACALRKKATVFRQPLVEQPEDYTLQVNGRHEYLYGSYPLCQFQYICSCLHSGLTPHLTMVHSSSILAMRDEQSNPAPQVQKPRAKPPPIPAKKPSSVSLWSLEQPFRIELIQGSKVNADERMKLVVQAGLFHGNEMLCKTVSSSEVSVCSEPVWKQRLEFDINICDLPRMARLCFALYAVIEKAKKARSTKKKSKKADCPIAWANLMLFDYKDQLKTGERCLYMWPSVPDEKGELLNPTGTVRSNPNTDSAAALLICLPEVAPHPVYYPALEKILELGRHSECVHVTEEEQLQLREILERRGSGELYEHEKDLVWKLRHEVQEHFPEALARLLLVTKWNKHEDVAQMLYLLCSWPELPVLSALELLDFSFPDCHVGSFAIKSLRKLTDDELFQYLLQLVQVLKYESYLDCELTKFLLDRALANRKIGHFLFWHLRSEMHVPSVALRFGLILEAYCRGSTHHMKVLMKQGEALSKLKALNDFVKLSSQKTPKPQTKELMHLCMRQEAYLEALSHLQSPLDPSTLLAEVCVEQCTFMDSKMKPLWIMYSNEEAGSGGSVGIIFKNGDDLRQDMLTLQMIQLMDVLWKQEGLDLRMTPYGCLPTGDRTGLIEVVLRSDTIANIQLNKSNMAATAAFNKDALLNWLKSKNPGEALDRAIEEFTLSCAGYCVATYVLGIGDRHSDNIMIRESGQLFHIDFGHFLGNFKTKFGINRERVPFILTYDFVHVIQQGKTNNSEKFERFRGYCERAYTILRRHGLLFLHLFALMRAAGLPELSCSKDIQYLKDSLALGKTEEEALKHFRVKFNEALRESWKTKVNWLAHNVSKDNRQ

SU-DHL-6 = assay: Antiproliferative activity against human SU-DHL-6 cells assessed as cell growth inhibition measured after 72 hrs by MTT assay; type: functional, cell-based; settings: SU-DHL-6, 72 h
SUD4 = assay: Antiproliferative activity against human SU-DHL-4 cells assessed as cell growth inhibition measured after 72 hrs by MTT assay; type: functional, cell-based; settings: SU-DHL-4, 72 h
[2] = biological target: T2, Phosphatidylinositol 4,5-bisphosphate 3-kinase catalytic subunit gamma isoform (Homo sapiens, UniProt P48736); assay: Inhibition of N-terminal His6-tagged recombinant full length human PI3Kgamma expressed in baculovirus infected Sf21 insect cells incubated for 30 mins by HTRF assay
Target sequence in this assay (P48736 whole entry, canonical isoform): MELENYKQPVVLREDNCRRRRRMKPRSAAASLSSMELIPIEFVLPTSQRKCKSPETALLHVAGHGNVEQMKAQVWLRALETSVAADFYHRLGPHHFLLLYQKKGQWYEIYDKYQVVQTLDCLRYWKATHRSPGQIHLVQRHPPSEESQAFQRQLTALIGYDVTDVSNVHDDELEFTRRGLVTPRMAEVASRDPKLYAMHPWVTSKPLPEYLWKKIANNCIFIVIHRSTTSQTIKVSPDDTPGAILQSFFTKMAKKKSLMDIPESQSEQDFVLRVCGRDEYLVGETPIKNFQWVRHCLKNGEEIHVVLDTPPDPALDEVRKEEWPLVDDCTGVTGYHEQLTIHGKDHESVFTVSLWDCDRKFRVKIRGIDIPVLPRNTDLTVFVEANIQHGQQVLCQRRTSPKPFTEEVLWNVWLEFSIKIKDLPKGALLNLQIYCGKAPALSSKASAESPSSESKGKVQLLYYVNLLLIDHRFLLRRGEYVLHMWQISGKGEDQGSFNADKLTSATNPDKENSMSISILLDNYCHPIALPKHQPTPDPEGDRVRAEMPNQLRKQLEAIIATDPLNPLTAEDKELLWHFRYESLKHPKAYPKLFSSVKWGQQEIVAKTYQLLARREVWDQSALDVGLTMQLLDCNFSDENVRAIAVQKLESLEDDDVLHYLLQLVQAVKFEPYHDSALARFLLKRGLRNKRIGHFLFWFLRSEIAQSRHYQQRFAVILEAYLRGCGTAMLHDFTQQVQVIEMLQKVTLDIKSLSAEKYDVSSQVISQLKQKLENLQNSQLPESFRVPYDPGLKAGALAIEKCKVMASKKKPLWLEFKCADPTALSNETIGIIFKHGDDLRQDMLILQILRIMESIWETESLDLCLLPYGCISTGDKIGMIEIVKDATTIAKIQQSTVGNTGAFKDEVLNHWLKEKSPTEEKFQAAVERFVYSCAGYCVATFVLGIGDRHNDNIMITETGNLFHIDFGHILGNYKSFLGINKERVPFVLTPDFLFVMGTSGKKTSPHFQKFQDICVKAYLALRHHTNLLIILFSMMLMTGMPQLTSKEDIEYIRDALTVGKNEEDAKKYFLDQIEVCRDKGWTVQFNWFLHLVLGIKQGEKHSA

[3] = biological target: T3, Phosphatidylinositol 4,5-bisphosphate 3-kinase catalytic subunit beta isoform (Homo sapiens, UniProt P42338); assay: Inhibition of N-terminal His6-tagged recombinant full length human PI3Kbeta expressed in baculovirus infected Sf21 insect cells at 1 uM by HTRF assay relative to control
Target sequence in this assay (P42338 whole entry, looked up, canonical isoform): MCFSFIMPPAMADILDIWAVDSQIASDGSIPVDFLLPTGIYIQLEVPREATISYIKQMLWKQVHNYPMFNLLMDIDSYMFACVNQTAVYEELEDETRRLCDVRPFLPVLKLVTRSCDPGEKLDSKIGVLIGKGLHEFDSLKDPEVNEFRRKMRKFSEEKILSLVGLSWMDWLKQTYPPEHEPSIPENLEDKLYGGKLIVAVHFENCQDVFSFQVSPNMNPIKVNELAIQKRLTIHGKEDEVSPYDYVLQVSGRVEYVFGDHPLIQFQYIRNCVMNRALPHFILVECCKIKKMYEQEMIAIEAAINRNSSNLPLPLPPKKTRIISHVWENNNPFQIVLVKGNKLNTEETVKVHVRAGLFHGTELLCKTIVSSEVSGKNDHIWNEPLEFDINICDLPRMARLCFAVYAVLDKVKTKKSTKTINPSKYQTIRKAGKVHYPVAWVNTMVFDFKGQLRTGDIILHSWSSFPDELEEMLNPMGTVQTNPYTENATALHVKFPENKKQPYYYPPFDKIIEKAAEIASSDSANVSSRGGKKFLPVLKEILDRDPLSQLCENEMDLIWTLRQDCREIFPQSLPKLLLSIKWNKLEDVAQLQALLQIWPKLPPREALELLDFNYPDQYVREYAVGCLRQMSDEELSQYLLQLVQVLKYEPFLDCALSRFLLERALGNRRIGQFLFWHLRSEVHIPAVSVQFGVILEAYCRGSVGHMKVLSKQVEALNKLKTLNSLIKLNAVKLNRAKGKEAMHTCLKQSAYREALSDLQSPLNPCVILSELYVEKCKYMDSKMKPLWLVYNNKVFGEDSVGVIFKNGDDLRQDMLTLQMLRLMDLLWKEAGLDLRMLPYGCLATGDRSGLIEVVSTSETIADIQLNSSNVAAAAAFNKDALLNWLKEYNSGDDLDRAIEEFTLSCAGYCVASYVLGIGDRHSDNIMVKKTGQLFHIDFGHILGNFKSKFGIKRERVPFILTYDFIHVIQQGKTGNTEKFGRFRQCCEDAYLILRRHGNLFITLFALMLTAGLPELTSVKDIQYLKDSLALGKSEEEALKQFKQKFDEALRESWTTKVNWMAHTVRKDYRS

[4] = biological target: T4, Phosphatidylinositol 4,5-bisphosphate 3-kinase catalytic subunit delta isoform (Homo sapiens) (UniProt O00329); assay: Inhibition of N-terminal His6-tagged recombinant full length human PI3Kdelta expressed in baculovirus infected Sf21 insect cells at 0.1 uM by HTRF assay relative to control
T4 sequence (whole entry): T1 sequence (O00329 whole entry)

[5] = Metabolic stability in human liver microsomes assessed as compound remaining at 1 uM measured upto 60 mins in presence of NADPH; type: ADME, Microsome; settings: read-out: Stability
[6] = biological target: T2, Phosphatidylinositol 4,5-bisphosphate 3-kinase catalytic subunit gamma isoform; assay: Inhibition of N-terminal His6-tagged recombinant full length human PI3Kgamma expressed in baculovirus infected Sf21 insect cells at 0.1 uM by HTRF assay relative to control
Target sequence in this assay (P48736 whole entry, looked up, canonical isoform): as the sequence (P48736 whole entry, canonical isoform) above

[7] = Metabolic stability in human liver microsomes assessed as half life at 1 uM measured upto 60 mins in presence of NADPH; type: ADME, Microsome
[8] = Metabolic stability in human liver microsomes assessed as clearance at 1 uM measured upto 60 mins in presence of NADPH by measuring protein; type: ADME, Microsome; settings: 1 h
[9] = biological target: T5, Phosphatidylinositol 4,5-bisphosphate 3-kinase catalytic subunit alpha isoform (Homo sapiens, UniProt P42336); assay: Inhibition of N-terminal His6-tagged recombinant full length human PI3Kalpha expressed in baculovirus infected Sf21 insect cells at 1 uM by HTRF assay relative to control
[10] = biological target: T5, Phosphatidylinositol 4,5-bisphosphate 3-kinase catalytic subunit alpha isoform; assay: Inhibition of N-terminal His6-tagged recombinant full length human PI3Kalpha expressed in baculovirus infected Sf21 insect cells incubated for 30 mins by HTRF assay
[11] = biological target: T3, Phosphatidylinositol 4,5-bisphosphate 3-kinase catalytic subunit beta isoform; assay: Inhibition of N-terminal His6-tagged recombinant full length human PI3Kbeta expressed in baculovirus infected Sf21 insect cells incubated for 30 mins by HTRF assay
Target sequence in this assay (P42338 whole entry, canonical isoform): as the sequence (P42338 whole entry, looked up, canonical isoform) above

[12] = biological target: T4, Phosphatidylinositol 4,5-bisphosphate 3-kinase catalytic subunit delta isoform (Homo sapiens); assay: Inhibition of N-terminal His6-tagged recombinant full length human PI3Kdelta expressed in baculovirus infected Sf21 insect cells at 1 uM by HTRF assay relative to control
[13] = biological target: T2, Phosphatidylinositol 4,5-bisphosphate 3-kinase catalytic subunit gamma isoform; assay: Inhibition of N-terminal His6-tagged recombinant full length human PI3Kgamma expressed in baculovirus infected Sf21 insect cells at 1 uM by HTRF assay relative to control
Target sequence in this assay (P48736 whole entry, looked up, canonical isoform): as the sequence (P48736 whole entry, canonical isoform) above

T5 sequence (P42336 whole entry, canonical isoform): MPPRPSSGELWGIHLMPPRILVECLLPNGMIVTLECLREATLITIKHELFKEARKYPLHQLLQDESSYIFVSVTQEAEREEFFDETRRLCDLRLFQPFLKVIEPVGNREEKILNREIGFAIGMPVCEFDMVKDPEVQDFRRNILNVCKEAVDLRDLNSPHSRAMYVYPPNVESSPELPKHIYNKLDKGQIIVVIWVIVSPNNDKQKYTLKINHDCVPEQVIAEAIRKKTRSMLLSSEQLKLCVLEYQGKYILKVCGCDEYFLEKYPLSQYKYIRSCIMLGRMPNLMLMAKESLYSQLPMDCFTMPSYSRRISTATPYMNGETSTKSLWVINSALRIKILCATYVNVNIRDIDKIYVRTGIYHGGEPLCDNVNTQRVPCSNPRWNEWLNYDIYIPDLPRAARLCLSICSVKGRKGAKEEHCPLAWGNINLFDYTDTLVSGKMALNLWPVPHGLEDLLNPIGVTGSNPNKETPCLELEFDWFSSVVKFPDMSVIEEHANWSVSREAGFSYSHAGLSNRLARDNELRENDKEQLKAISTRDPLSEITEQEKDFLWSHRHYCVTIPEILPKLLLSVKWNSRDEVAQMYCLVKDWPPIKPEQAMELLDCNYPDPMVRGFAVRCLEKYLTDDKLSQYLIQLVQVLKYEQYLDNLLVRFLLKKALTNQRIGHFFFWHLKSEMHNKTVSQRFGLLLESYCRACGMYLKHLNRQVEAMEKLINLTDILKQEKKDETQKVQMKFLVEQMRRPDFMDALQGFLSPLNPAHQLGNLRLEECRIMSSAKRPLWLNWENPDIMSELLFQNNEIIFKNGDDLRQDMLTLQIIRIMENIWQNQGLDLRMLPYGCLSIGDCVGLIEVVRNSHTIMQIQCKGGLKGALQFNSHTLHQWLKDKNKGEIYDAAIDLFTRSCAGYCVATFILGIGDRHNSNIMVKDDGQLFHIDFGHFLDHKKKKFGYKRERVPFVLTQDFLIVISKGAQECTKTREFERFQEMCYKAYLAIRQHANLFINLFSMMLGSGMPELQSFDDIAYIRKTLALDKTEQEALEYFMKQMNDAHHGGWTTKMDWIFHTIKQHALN

SMILES | IC50 (DOHH-2) [µM] | IC50 [1] [µM] | IC50 (SU-DHL-6) [µM] | IC50 (SUD4) [µM] | IC50 [2] [µM] | inhibition [3] [%] | inhibition [4] [%] | remaining at 1 h, 1 µM [5] [%] | inhibition [6] [%] | half-life at 1 µM [7] [h] | CLH [8] [mL/min/g] | inhibition [9] [%] | IC50 [10] [µM] | IC50 [11] [µM] | inhibition [12] [%] | inhibition [13] [%]
N#Cc1c(N)nc(N)nc1N1[C@H](c2nc3cccc(Cl)c3c(=O)n2N2CCOCC2)C[C@@H]2CCCC[C@@H]21 | 3.86 | 41 | 1.34 | 1.04 | 312 | – | – | – | – | – | – | – | – | – | – | –
CC(C)n1cc(-c2cccc3nc([C@@H]4CC[C@H](C)N4c4nc(N)nc(N)c4C#N)n(-c4ccccc4)c(=O)c23)cn1 | 0.54 | – | 0.32 | 0.21 | – | 28 | 1 | 40.4 | 10 | 0.78 | 29.6 | 12 | – | – | – | –
N#Cc1c(N)nc(N)nc1N1[C@H](c2nc3cccc(Cl)c3c(=O)n2-c2cccc(F)c2)C[C@@H]2CCCC[C@@H]21 | 2.8 | 28 | 1.61 | 1.3 | 280 | – | – | – | – | – | – | – | – | – | – | –
C[C@H]1CC[C@@H](c2nc3c(F)cc(F)cc3c(=O)n2-c2cccnc2)N1c1nc(N)nc(N)c1C#N | 0.47 | 3 | 0.18 | 0.16 | 30 | – | – | – | – | – | – | – | 374 | 445 | – | –
C[C@H]1CC[C@@H](c2nc3cccc(Cl)c3c(=O)n2-c2ccccc2)N1c1nc(N)nc2[nH]cnc12 | 0.28 | – | 0.25 | 0.18 | – | 31 | 18 | 75.5 | 30 | 2.03 | 11.4 | 78 | – | – | -2 | –
C[C@H]1CC[C@@H](c2nc3cccc(-c4cnn(C)c4)c3c(=O)n2-c2ccccc2)N1c1nc(N)nc(N)c1C#N | 0.68 | – | 0.42 | 0.3 | – | 20 | -8 | 64.7 | 12 | 1.67 | 13.8 | -1 | – | – | – | –
CCCn1cc(-c2cccc3nc([C@@H]4CC[C@H](C)N4c4nc(N)nc(N)c4C#N)n(-c4ccccc4)c(=O)c23)cn1 | 0.69 | – | 0.39 | 0.33 | – | 13 | -2 | 51.2 | 2 | 1.38 | 16.8 | 5 | – | – | – | –
C[C@H]1CC[C@@H](c2nc3cccc(Cl)c3c(=O)n2-c2ccccc2)N1c1nc(N)nc(N)c1C#N | 0.82 | – | 0.11 | 0.12 | – | 45 | -7 | 67.9 | 24 | 1.78 | 13 | 13 | – | – | -1 | -3
C[C@H]1CC[C@@H](c2nc3cccc(C#Cc4cccnc4)c3c(=O)n2-c2ccccc2)N1c1nc(N)nc(N)c1C#N | 0.69 | – | 0.32 | 0.24 | – | 13 | 4 | 78.1 | 31 | 2.89 | 8 | 8 | – | – | – | –
COc1cncc(-c2cccc3nc([C@@H]4CC[C@H](C)N4c4nc(N)nc(N)c4C#N)n(-c4cccc(F)c4)c(=O)c23)c1 | 0.52 | 0.6 | 0.11 | 0.43 | 9 | – | – | – | – | – | – | – | 22 | 429 | – | –
COc1cncc(-c2cccc3nc([C@@H]4CC[C@H](C)N4c4nc(N)nc(N)c4C#N)n(-c4ccccc4)c(=O)c23)c1 | 0.29 | – | 0.19 | 0.12 | – | 19 | – | 59.9 | 12 | 1.11 | 20.8 | 13 | – | – | – | –
CCOc1cncc(-c2cccc3nc([C@@H]4CC[C@H](C)N4c4nc(N)nc(N)c4C#N)n(-c4ccccc4)c(=O)c23)c1 | 0.21 | – | 0.43 | 0.11 | – | -3 | -6 | 46.1 | -8 | 0.813 | 28.4 | – | – | – | – | –
C[C@H]1CC[C@@H](c2nc3cccc(-c4cnn(C5CC5)c4)c3c(=O)n2-c2ccccc2)N1c1nc(N)nc(N)c1C#N | 0.39 | – | 0.26 | 0.22 | – | 2 | 0 | 45 | -2 | 1.3 | 17.8 | 23 | – | – | – | –
N#Cc1c(N)nc(N)nc1N1[C@H](c2nc3cccc(F)c3c(=O)n2-c2cccnc2)C[C@@H]2CCCC[C@@H]21 | 2.57 | 42 | 1.1 | 1.12 | 364 | – | – | – | – | – | – | – | 3120 | 1550 | – | –
CCn1cc(-c2cccc3nc([C@@H]4CC[C@H](C)N4c4nc(N)nc(N)c4C#N)n(-c4ccccc4)c(=O)c23)cn1 | 0.74 | – | 0.53 | 0.29 | – | 6 | -4 | 60 | -10 | 1.33 | 17.4 | 1 | – | – | – | –
C[C@H]1CC[C@@H](c2nc3cccc(Cl)c3c(=O)n2-c2cccc(F)c2)N1c1nc(N)nc(N)c1C#N | 0.5 | 2 | 0.19 | 0.09 | 17 | – | – | – | – | – | – | – | 258 | 412 | – | –
